Test results taken from patent publication US20130102631A1, “NOVEL MICROBIOCIDAL DIOXIME ETHER DERIVATIVES” (SYNGENTA CROP PROTECTION LLC, priority 2010, published 2013).

Assays:
[1] = tested on: Puccinia recondita f. sp. tritici; assay: Puccinia recondita f. sp. tritici / wheat / leaf disc curative (brown rust); type: in vivo; settings: foliar, wheat leaf segments cv Kanzler, 200 ppm applied 1 day after inoculation, assessed 6-8 days after application
Glomerella lagenarium = Glomerella lagenarium (Colletotrichum lagenarium) / liquid culture (anthracnose); type: cell-based; settings: Colletotrichum orbiculare; at ≦200 ppm, liquid culture PDB, inhibition of growth photometrically 3-4 days after application; read-out: control of Glomerella lagenarium
Summary of the method: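 Glomerella lagenarium conidia in potato dextrose broth added to test compound supplied in DMSO in microtiter wells. Plates incubated at 24° C.; growth inhibition measured photometrically 3-4 days after application.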

[2] = tested on: Mycosphaerella graminicola (Septoria tritici); assay: Mycosphaerella graminicola (Septoria tritici) / liquid culture (Septoria blotch); type: cell-based; settings: Zymoseptoria tritici; at ≦200 ppm, liquid culture PDB, inhibition of growth photometrically 4-5 days after application; read-out: control of Mycosphaerella graminicola
Gaeumannomyces graminis = Gaeumannomyces graminis / liquid culture (take-all of cereals); type: cell-based; settings: at ≦200 ppm, liquid culture PDB, inhibition of growth photometrically 4-5 days after application, read-out: control of Gaeumannomyces graminis
Summary of the method: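 Mycelial fragments of the fungus in potato dextrose broth were added to wells containing compound in DMSO. Plates were incubated at 24° C, and growth inhibition was read photometrically 4-5 days after application.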

[3] = tested on: Thanatephorus cucumeris (Rhizoctonia solani); assay: Thanatephorus cucumeris (Rhizoctonia solani) / liquid culture (foot rot, damping-off); type: cell-based; settings: at ≦200 ppm, liquid culture PDB, inhibition of growth photometrically 3-4 days after application, read-out: control of Thanatephorus cucumeris
[4] = tested on: Monographella nivalis (Microdochium nivale); assay: Monographella nivalis (Microdochium nivale) / liquid culture (foot rot cereals); type: cell-based; settings: at ≦200 ppm, liquid culture PDB, inhibition of growth photometrically 4-5 days after application, read-out: control of Monographella nivalis
Summary of the method: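 Microdochium nivale conidia in potato dextrose broth added to compound delivered in DMSO, then incubated at 24 °C. Growth inhibition measured photometrically 4-5 days after application.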

[5] = tested on: Blumeria graminis f. sp. tritici (Erysiphe graminis f. sp. tritici); assay: Blumeria graminis f. sp. tritici / wheat / leaf disc preventative (powdery mildew on wheat); type: in vivo; settings: foliar, wheat leaf segments cv. Kanzler, inoculated 1 day after application, assessed 6-8 days after application
Summary of the method: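 Wheat cv. Kanzler leaf segments on agar sprayed with formulated compound at 200 ppm, inoculated 1 day later with powdery mildew, incubated at 20° C, 60% RH (24 h dark then 12 h/12 h). Percent disease control versus untreated scored 6-8 days after application.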

C/C(=N/OCC(C)(C)CO/N=C1\CCCc2ccc(C)nc21)c1ccccn1 [Compound 2.519]
≥ 80%: pest or weed control at 200 ppm [1] | inhibition of growth at up to 200 µg/mL (Glomerella lagenarium) | inhibition of growth at up to 200 µg/mL [2] | inhibition of growth at up to 200 µg/mL (Gaeumannomyces graminis) | inhibition of growth at up to 200 µg/mL [3] | inhibition of growth at up to 200 µg/mL [4] | pest or weed control at 200 ppm [5]

C/C(=N\OCC(C)(C)CO/N=C1\CCCc2ccc(-c3cccc(C)n3)nc21)c1cc(C)cc(C)n1 [Compound 2.559]
≥ 80%: pest or weed control at 200 ppm [1] | inhibition of growth at up to 200 µg/mL (Glomerella lagenarium) | inhibition of growth at up to 200 µg/mL [2] | inhibition of growth at up to 200 µg/mL (Gaeumannomyces graminis) | inhibition of growth at up to 200 µg/mL [3] | inhibition of growth at up to 200 µg/mL [4] | pest or weed control at 200 ppm [5]
